biological target: recombinant human HPK1 (Homo sapiens (Human), UniProt Q92918); assay: HPK1 kinase assay (ADP-Glo); type: biochemical; conditions: 25 μM ATP, MBP substrate
In short: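 Activity was read as ADP formed, detected by ADP-Glo luminescence after the reaction of 5 ng recombinant human HPK1 with MBP and ATP (stocks 0.5 μg/μl and 25 μM) for 40 min at 30 °C. Buffer was Tris pH 7.5 with MgCl2, BSA and DTT, with compound in 0.5% DMSO. IC50 came from inhibition curves.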

Chain of recombinant human HPK1 (Q92918 whole entry): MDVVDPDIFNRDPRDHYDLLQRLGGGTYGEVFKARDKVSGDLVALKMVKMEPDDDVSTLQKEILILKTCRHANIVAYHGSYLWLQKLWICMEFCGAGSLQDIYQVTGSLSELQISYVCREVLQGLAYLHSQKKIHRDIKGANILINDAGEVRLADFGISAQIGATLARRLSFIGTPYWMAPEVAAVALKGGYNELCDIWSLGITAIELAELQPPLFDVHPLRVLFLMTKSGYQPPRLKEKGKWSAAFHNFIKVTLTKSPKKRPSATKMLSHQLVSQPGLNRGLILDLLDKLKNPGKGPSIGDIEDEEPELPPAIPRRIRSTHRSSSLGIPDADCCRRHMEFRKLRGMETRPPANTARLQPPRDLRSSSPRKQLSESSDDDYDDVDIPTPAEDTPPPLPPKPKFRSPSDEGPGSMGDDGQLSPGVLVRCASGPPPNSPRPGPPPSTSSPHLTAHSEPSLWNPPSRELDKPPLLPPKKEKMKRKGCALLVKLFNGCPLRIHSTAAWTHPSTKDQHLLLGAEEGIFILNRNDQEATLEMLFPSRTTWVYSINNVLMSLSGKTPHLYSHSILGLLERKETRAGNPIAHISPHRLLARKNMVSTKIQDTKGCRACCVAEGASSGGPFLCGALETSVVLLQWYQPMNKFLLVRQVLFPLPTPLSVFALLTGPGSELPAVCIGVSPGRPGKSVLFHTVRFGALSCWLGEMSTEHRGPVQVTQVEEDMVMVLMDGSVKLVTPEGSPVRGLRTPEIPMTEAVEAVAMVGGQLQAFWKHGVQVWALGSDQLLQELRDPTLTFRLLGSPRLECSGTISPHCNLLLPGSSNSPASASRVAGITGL

SMILES	IC50 [nM]
COC(=O)c1c(F)c(C)c(-c2ccc3nc(NC(=O)[C@@H]4C[C@@H]4F)sc3c2)c2cn[nH]c12 [Example 116, methyl 6-fluoro-4-(2-((1S,2S)-2-fluorocyclopropane-1-carboxamido)benzo[d]thiazol-6-yl)-5-methyl-1H-indazole-7-carboxylate]	< 100
CN(C)c1ccc(-c2ccc3nc(NC(=O)[C@@H]4C[C@@H]4F)sc3n2)c2cn[nH]c12 [Example 216, (1S,2S)-N-(5-(7-(dimethylamino)-1H-indazol-4-yl)thiazolo[5,4-b]pyridin-2-yl)-2-fluorocyclopropane-1-carboxamide]	> 1000
CC1(F)CN(c2c(F)c(Cl)c(-c3ccn4nc(NC(=O)[C@@H]5C[C@@H]5F)cc4c3)c3cn[nH]c23)C1 [Example 632, (1S,2S)-N-(5-(5-chloro-6-fluoro-7-(3-fluoro-3-methylazetidin-1-yl)-1H-indazol-4-yl)pyrazolo[1,5-a]pyridin-2-yl)-2-fluorocyclopropane-1-carboxamide]	< 100
O=C(Nc1cn2cc(-c3c(Cl)c(F)c(Cn4ccnn4)c4[nH]ncc34)ccc2n1)[C@@H]1C[C@@H]1F [Example 384, (1S,2S)-N-(6-(7-((1H-1,2,3-triazol-1-yl)methyl)-5-chloro-6-fluoro-1H-indazol-4-yl)imidazo[1,2-a]pyridin-2-yl)-2-fluorocyclopropane-1-carboxamide]	< 100
NCCSc1c(F)c(Cl)c(-c2ccc3nc(NC(=O)[C@@H]4C[C@@H]4F)sc3c2)c2cn[nH]c12 [Example 70, (1S,2S)-N-(6-(7-((2-aminoethyl)thio)-5-chloro-6-fluoro-1H-indazol-4-yl)benzo[d]thiazol-2-yl)-2-fluorocyclopropane-1-carboxamide]	< 100
Cc1cccn1-c1c(F)c(Cl)c(-c2ccn3nc(NC(=O)[C@@H]4C[C@@H]4F)cc3c2)c2cn[nH]c12 [Example 644, (1S,2S)-N-(5-(5-chloro-6-fluoro-7-(2-methyl-1H-pyrrol-1-yl)-1H-indazol-4-yl)pyrazolo[1,5-a]pyridin-2-yl)-2-fluorocyclopropane-1-carboxamide]	< 100
O=C(Nc1nc2ccc(-c3c(C(F)(F)F)ccc4[nH]ncc34)cc2s1)C1CC1 [Example 17, N-(6-(5-(trifluoromethyl)-1H-indazol-4-yl)benzo[d]thiazol-2-yl)cyclopropanecarboxamide]	101 to 500
CC(C)N(C)c1c(F)c(Cl)c(-c2ccn3nc(NC(=O)[C@@H]4C[C@@H]4F)cc3c2)c2cn[nH]c12 [Example 622, (1S,2S)-N-(5-(5-chloro-6-fluoro-7-(isopropyl(methyl)amino)-1H-indazol-4-yl)pyrazolo[1,5-a]pyridin-2-yl)-2-fluorocyclopropane-1-carboxamide]	< 100
O=C(Nc1cn2cc(-c3c(C4CC4)c(F)cc4[nH]ncc34)ccc2n1)C1CC1 [Example 241, N-(6-(5-cyclopropyl-6-fluoro-1H-indazol-4-yl)imidazo[1,2-a]pyridin-2-yl)cyclopropanecarboxamide]	> 1000
O=C(Nc1cn2cc(-c3cccc4[nH]ncc34)ccc2n1)[C@@H]1C[C@@H]1F [Example 222, (1S,2S)-N-(6-(1H-indazol-4-yl)imidazo[1,2-a]pyridin-2-yl)-2-fluorocyclopropane-1-carboxamide]	501 to 1000
CC(NC(=O)C1CCC1)c1c(F)c(Cl)c(-c2ccc3nc(NC(=O)[C@@H]4C[C@@H]4F)cn3c2)c2cn[nH]c12 (stereo partly drawn) [Example 430, N-(1-(5-chloro-6-fluoro-4-(2-((1S,2S)-2-fluorocyclopropane-1-carboxamido)imidazo[1,2-a]pyridin-6-yl)-1H-indazol-7-yl)ethyl)cyclobutanecarboxamide]	< 100
CN(C)c1ccc2[nH]ncc2c1-c1ccc2nc(NC(=O)C3CC3)cn2c1 [Example 230, N-(6-(5-(dimethylamino)-1H-indazol-4-yl)imidazo[1,2-a]pyridin-2-yl)cyclopropanecarboxamide]	> 1000
Cc1c(F)c(Br)c2[nH]ncc2c1-c1ccc2nc(NC(=O)[C@@H]3C[C@@H]3F)cn2c1 [Example 268, (1S,2S)-N-(6-(7-bromo-6-fluoro-5-methyl-1H-indazol-4-yl)imidazo[1,2-a]pyridin-2-yl)-2-fluorocyclopropane-1-carboxamide]	< 100
CN1CCN(c2c(F)c(Cl)c(-c3ccn4nc(NC(=O)[C@@H]5C[C@@H]5F)cc4c3)c3cn[nH]c23)C1=O [Example 623, (1S,2S)-N-(5-(5-chloro-6-fluoro-7-(3-methyl-2-oxoimidazolidin-1-yl)-1H-indazol-4-yl)pyrazolo[1,5-a]pyridin-2-yl)-2-fluorocyclopropane-1-carboxamide]	< 100
O=C(Nc1nc2ccc(-c3c(I)c(F)cc4[nH]ncc34)cc2s1)[C@@H]1C[C@@H]1F [Example 48, (1S,2S)-2-fluoro-N-(6-(6-fluoro-5-iodo-1H-indazol-4-yl)benzo[d]thiazol-2-yl)cyclopropane-1-carboxamide]	< 100
CC(C#N)Nc1c(F)c(Cl)c(-c2ccn3nc(NC(=O)[C@@H]4C[C@@H]4F)cc3c2)c2cn[nH]c12 (stereo partly drawn) [Example 641, (1S,2S)-N-(5-(5-chloro-7-((1-cyanoethyl)amino)-6-fluoro-1H-indazol-4-yl)pyrazolo[1,5-a]pyridin-2-yl)-2-fluorocyclopropane-1-carboxamide]	< 100

SMILES	IC50 [nM]
CN(C)c1c(F)cc(-c2ccc3nc(NC(=O)[C@@H]4C[C@@H]4F)sc3c2)c2cn[nH]c12 [Example 139, (1S,2S)-N-(6-(7-(dimethylamino)-6-fluoro-1H-indazol-4-yl)benzo[d]thiazol-2-yl)-2-fluorocyclopropane-1-carboxamide]	< 100
Cc1c(F)c([S+](C)[O-])c2[nH]ncc2c1-c1ccc2nc(NC(=O)[C@@H]3C[C@@H]3F)sc2c1 (stereo partly drawn) [Example 66, (1S,2S)-2-fluoro-N-(6-(6-fluoro-5-methyl-7-(methylsulfinyl)-1H-indazol-4-yl)benzo[d]thiazol-2-yl)cyclopropane-1-carboxamide]	< 100
CNC(=O)OCCN(C)c1c(F)c(C)c(-c2ccc3nc(NC(=O)[C@@H]4C[C@@H]4F)sc3n2)c2cn[nH]c12 [Example 202, 2-((6-fluoro-4-(2-((1S,2S)-2-fluorocyclopropane-1-carboxamido)thiazolo[5,4-b]pyridin-5-yl)-5-methyl-1H-indazol-7-yl)(methyl)amino)ethyl methylcarbamate]	< 100
O=C(Nc1nc2ccc(-c3cc(Cl)cc4[nH]ncc34)cc2s1)C1CC1 [Example 20, N-(6-(6-chloro-1H-indazol-4-yl)benzo[d]thiazol-2-yl)cyclopropanecarboxamide]	> 1000
Cc1ccc2[nH]ncc2c1-c1ccc2nc(NC(=O)[C@@H]3C[C@@H]3F)cn2c1 [Example 221, (1S,2S)-2-fluoro-N-(6-(5-methyl-1H-indazol-4-yl)imidazo[1,2-a]pyridin-2-yl)cyclopropane-1-carboxamide]	101 to 500
O=C(Nc1cn2cc(-c3c(Cl)c(F)c(-c4cnc[nH]4)c4[nH]ncc34)ccc2n1)[C@@H]1C[C@@H]1F [Example 431, (1S,2S)-N-(6-(5-chloro-6-fluoro-7-(1H-imidazol-5-yl)-1H-indazol-4-yl)imidazo[1,2-a]pyridin-2-yl)-2-fluorocyclopropane-1-carboxamide]	101 to 500
Cc1c(F)c(Cl)c2[nH]nc(Cl)c2c1-c1ccc2nc(NC(=O)[C@@H]3C[C@@H]3F)sc2c1 [Example 53, (1S,2S)-N-(6-(3,7-dichloro-6-fluoro-5-methyl-1H-indazol-4-yl)benzo[d]thiazol-2-yl)-2-fluorocyclopropane-1-carboxamide]	101 to 500
CCc1c(F)c(SCC(=O)N(C)C)c2[nH]ncc2c1-c1ccn2nc(NC(=O)[C@@H]3C[C@@H]3F)cc2c1 [Example 522]	< 100
CCc1ccc2[nH]ncc2c1-c1ccc2nc(NC(=O)C3CC3)cn2c1 [Example 234, N-(6-(5-ethyl-1H-indazol-4-yl)imidazo[1,2-a]pyridin-2-yl)cyclopropanecarboxamide]	> 1000
CCN(C)c1c(F)c(Cl)c(-c2ccc3nc(NC(=O)[C@@H]4C[C@@H]4F)cn3c2)c2cn[nH]c12 [Example 306, (1S,2S)-N-(6-(5-chloro-7-(ethyl(methyl)amino)-6-fluoro-1H-indazol-4-yl)imidazo[1,2-a]pyridin-2-yl)-2-fluorocyclopropane-1-carboxamide]	< 100
CC(C)c1c(F)cc2[nH]ncc2c1-c1ccc2nc(NC(=O)[C@@H]3C[C@@H]3F)sc2n1 [Example 150, (1S,2S)-2-fluoro-N-(5-(6-fluoro-5-isopropyl-1H-indazol-4-yl)thiazolo[5,4-b]pyridin-2-yl)cyclopropane-1-carboxamide]	< 100
O=C(Nc1cn2cc(-c3cc(F)c(OC(F)(F)F)c4[nH]ncc34)ccc2n1)[C@@H]1C[C@@H]1F [Example 344, (1S,2S)-2-fluoro-N-(6-(6-fluoro-7-(trifluoromethoxy)-1H-indazol-4-yl)imidazo[1,2-a]pyridin-2-yl)cyclopropane-1-carboxamide]	101 to 500
CNC1CCC(N(C)c2c(F)c(Cl)c(-c3ccn4nc(NC(=O)[C@@H]5C[C@@H]5F)cc4c3)c3cn[nH]c23)CC1 (stereo partly drawn) [Example 505, (1S,2S)-N-(5-(5-chloro-6-fluoro-7-(methyl((1S,4S)-4-(methylamino)cyclohexyl)amino)-1H-indazol-4-yl)pyrazolo[1,5-a]pyridin-2-yl)-2-fluorocyclopropane-1-carboxamide]	< 100
CCc1c(F)c(SC2(C#N)CC2)c2[nH]ncc2c1-c1ccn2nc(NC(=O)[C@@H]3C[C@@H]3F)cc2c1 [Example 608, (1S,2S)-N-(5-(7-((1-cyanocyclopropyl)thio)-5-ethyl-6-fluoro-1H-indazol-4-yl)pyrazolo[1,5-a]pyridin-2-yl)-2-fluorocyclopropane-1-carboxamide]	< 100
O=C(Nc1nc2ccc(-c3c(C(F)(F)F)c(F)c(Cl)c4[nH]ncc34)nc2s1)[C@@H]1C[C@@H]1F [Example 198, (1S,2S)-N-(5-(7-chloro-6-fluoro-5-(trifluoromethyl)-1H-indazol-4-yl)thiazolo[5,4-b]pyridin-2-yl)-2-fluorocyclopropane-1-carboxamide]	< 100

— patent US11649255B2, “Indazoles as hematopoietic progenitor kinase 1 (HPK1) inhibitors and methods using same” (1st Biotherapeutics, Inc., priority 2020, dated 2023)
